{"source": "paper PMC4967898", "about": "“Peptides interfering with protein-protein interactions in the ethylene signaling pathway delay tomato fruit ripening” (Scientific Reports, 2016)", "molecules": {"B1": {"name": "NOP-1 (LKRYKRRL-NH2) (peptide)", "peptide": "H-LKRYKRRL-NH2", "notes": "the motif is fully conserved in tomato EIN2; also called NLS-based peptide; source: synthetic peptide (Molecular Proteomics Laboratory of the BMFZ Düsseldorf, >90% purity)"}, "B2": {"name": "tomato ethylene receptor protein LeETR1 (receptor, UniProt Q41342 1-754, looked up)", "chain": "MGSLLRMNRLLSSIVESCNCIIDPQLPADDLLMKYQYISDFFIALAYFSIPVELIYFVKKSAVFPYRWVLVQFGAFIVLCGATHLINLWTFNMHTRNVAIVMTTPKALTALVSCITALMLVHIIPDLLSVKTRELFLKKKAAQLDREMGIIRTQEETGRHVRMLTHEIRSTLDRHTILKTTLVELGRTLALEECALWMPTRTGLELQLSYTLRHQNPVGLTVPIQLPVINQVFGTNHVVKISPNSPVARLRPAGKYMPGEVVAVRVPLLHLSNFQINDWPELSTKRYALMVLMLPSDSARQWHVHELELVEVVADQVAVALSHAAILEESMRARDLLMEQNVALDLARREAEMAVRARNDFLAVMNHEMRTPMHAIIALSSLLQETDLTPEQRLMVETILKSSNLLATLINDVLDLSRLEDGSLQLDIGTFNLHALFREVHSLIKPIASVKKLFVTLSLSSDLPEYVIGDEKRLMQILLNVVGNAVKFSKEGNVSISAFVAKSDSLRDPRAPEFFAVPSENHFYLRVQIKDTGIGITPQDIPNLFSKFTQSQALATTNSGGTGLGLAICKRFVNLMEGHIWIESEGLGKGSTAIFIIKLGIPGRANESKLPFVTKLPANHTQMSFQGLKVLVMDENGVSRMVTKGLLTHLGCDVTTVGSRDECLRVVTHEHKVVIMDVSMQGIDCYEVAVVIHERFGKRHGRPLIVALTGNTDRVTKENCMRVGMDGVILKPVSVYKMRSVLSELLEHGVVLES", "modifications": "Alexa Fluor 488 succinimidyl-ester label (MST with LeEIN2, FRET assay); Alexa Fluor 488-Maleimide label (MST with NOP-1); non-labeled in the reverse MST titration", "notes": "ethylene receptor ETR1 of tomato (LeETR1); Membrane protein kept in 0.015% Fos-Choline-16 for MST; also called tomato ETR1; tomato receptor"}}, "key": {"[1]": {"tested_on": "green, immature tomato fruits", "assay": "Tomato fruit ripening after inhibitor treatment", "type": "in vivo, tomato (Solanum pimpinellifolium)", "conditions": "for delay in maturation of tomato fruits: 200 μM, all tested inhibitors and all applications of NOP-1 (injection, incubation, surface application), documented for 20 days, three fruits per application", "text": "To further investigate the potential of NOP-1 for agricultural applications, we tested the effect of the NOP-1 peptide on tomato fruit ripening in comparison to other known inhibitors of ethylene responses. To this end we tested […] (MCP) and aminoethoxyvinylglycine (AVG). MCP is a known inhibitor of ethylene signaling blocking ethylene binding at the receptor proteins, whereas AVG blocks ethylene production in the plant by competitive inhibition of ACC synthases. To monitor inhibition of the fruit ripening process, we treated green, immature tomato fruits with 200 μM NOP-1, MCP or AVG, respectively and documented the fruit ripening process for 20 days. Figure 3 compares the effect of the different inhibitor treatments on tomato fruits to controls lacking the inhibitory treatment that contain either buffer alone or a random sequence control peptide (ROP-1). […] The bioassays underline the high inhibitory potential of NOP-1 on the ripening process compared to the well-known and efficient inhibitors of ethylene responses.\nInhibitor-treatment of tomato fruits\nAminoethoxyvinyl glycine (AVG) was purchased from Sigma-Aldrich, St Louis, MO (purity ~95%). SmartFresh^SM (AgroFresh, Spring House, PA) was used as sugar-based powder formulation of 1-MCP. Concentration of 1-MCP was calculated according to the percentage of active ingredient (0.14%) and release from the SmartFresh^SM powder. For comparison concentration of all inhibitors are expressed in terms of molarity. For treatment of tomato fruits with NOP-1, AVG and MCP, inhibitors were dissolved in the FRET buffer described in the previous section to a final concentration of 200 μM. Green tomato fruits (Solanum pimpinellifolium) from the same estimated developmental stage were harvested from the panicle and water-cleaned. 300 μL of the inhibitor solution was applied onto the tomato surface with a brush and the fruits were air-dried for 30 min. As an alternative application, tomato fruits were plunged into 2 mL of the inhibitor solution and incubated for 30 min in this solution or 200 μL of the peptide-containing solution were carefully injected into the tomato tissue by a hypodermic syringe. Three individual tomato fruits were treated for the different applications of the peptide in order to document the ripening process. After inhibitor-treatment tomato fruits were transferred to a vial closed with aluminum foil and stored in the dark at room temperature. Maturation process was documented every second day for at least 20 days. For measurement of ethylene production, green tomato fruits were treated as described above."}, "[2]": {"assay": "Fluorescence of the dyes on their own (FRET control)", "conditions": "100 μM peptide; free dyes", "text": "(§1) For this purpose, we made use of a fluorescence resonance energy transfer (FRET)-based in vitro assay, originally established for the respective Arabidopsis signaling proteins. Recombinant ethylene proteins LeETR1 and LeEIN2^462–1316 were labeled with fluorescent Alexa dyes[36] as described in the Methods section. LeETR1 was labeled with Alexa Fluor 488, while LeEIN2^462–1316 was labeled with Alexa Fluor 568. As the emission spectrum of the donor fluorophore partially overlaps with the excitation spectrum of the acceptor fluorophore, the dyes form a FRET pair and energy transfer from the donor to the acceptor fluorophore is possible when both probes get in close proximity. […] Formation of the complex is monitored by FRET from the donor molecule Alexa Fluor 488 to the acceptor molecule Alexa Fluor 568. Processes or molecules that prevent complex formation result in a reduced FRET from the donor to the acceptor, which is detected as reduced acceptor fluorescence at the emission maximum.\n(b) Calculation of IC50 value for NOP-1. Data were obtained in the FRET-assay in presence of increasing concentrations of NOP-1 peptide. […] (c) Determination of Kd value of NOP-1 binding to LeETR1 based on MST is illustrated. MST-signal is plotted against the NOP-1 concentration. […] All data (a,b,c) represent the mean +/− standard deviation."}, "[3]": {"biological_target": "T1, tomato EIN2-ETR1 complex (Solanum lycopersicum, UniProt Q41342)", "T1 construct": "made in house; host or cells: E. coli BL21(DE3) with pRARE (LeEIN2 fragment); E. coli (LeETR1)", "T1 sequence (Q41342 1-754)": "B2 chain", "assay": "FRET assay of LeEIN2-LeETR1 complex formation", "type": "biochemical", "conditions": "FRET assay; 100 μM peptide where stated; LeETR1-Alexa Fluor 488 and LeEIN2-Alexa Fluor 568, 3 μM each", "text": "as §1\nQuantitative analysis of inhibitory peptides on ETR1-EIN2 complex by FRET\nFor the FRET assay, recombinant LeETR1 was labeled with Alexa Fluor 488 succinimidyl-ester and LeEIN2^462–1316 was labeled with Alexa Fluor 568 succinimidyl-ester (both Life Technologies) in a buffer containing 50 mM potassium phosphate pH 8.0, 300 mM NaCl and 5% (v/v) glycerol following manufacturer’s protocol (MolecularProbes Protein Labeling Kit). Labeled proteins were transferred in FRET buffer containing 50 mM Tris-HCl pH 8.0, 300 mM NaCl, 0.05% (v/v) Tween 20, 5% (v/v) glycerol and mixed at a final concentration of 3.0 μM each. […] The FRET-based binding assay was carried out in 384-well microplates using an Infinite M200 Pro microplate reader (Tecan) at 455 nm excitation wavelength. Emission spectra were detected between 565 nm to 645 nm. FRET efficiencies were calculated from the maximal emission in the absence and in the presence of the supplied peptides and the half maximal inhibitor concentration IC50 was calculated as previously described."}, "[4]": {"biological_target": "B2", "assay": "FRET or BRET; in vitro FRET: LeETR1-Alexa Fluor 488 (donor) and LeEIN2 462-1316-Alexa Fluor 568 (acceptor), 3.0 μM each; 50 mM Tris-HCl pH 8.0, 300 mM NaCl, 0.05% Tween 20, 5% glycerol; proteins pre-incubated with peptides; excitation 455 nm, 384-well plates", "conditions": "both partners purified"}, "[5]": {"biological_target": "B2", "assay": "MST; 50 nM LeETR1 labeled with Alexa Fluor 488-Maleimide titrated with NOP-1 (3.8 nM to 31 μM); 50 mM Tris-HCl pH 8.0, 300 mM NaCl, 0.015% Fos-Choline-16; 80% MST power; 1:1 model", "conditions": "both partners purified"}, "[6]": {"biological_target": "T2, C-terminal part of tomato EIN2 (LeEIN2^462–1316) (tomato, UniProt Q6Q2C1 462-1316, unlabeled in the MST titration of labeled LeETR1; Alexa Fluor 488 label in the reverse MST titration; Alexa Fluor 568 succinimidyl-ester label in the FRET assay)", "T2 construct": "the N-terminal membrane domain (aa 1-461) was deleted from the full-length cDNA; The purified protein was detected with an anti-polyhistidine antibody; no tag removal is described; also called C-terminal domain of tomato EIN2; source: E. coli BL21(DE3) with pRARE, purified (HisTrap FF, PD-10 desalting)", "T2 sequence (looked up)": "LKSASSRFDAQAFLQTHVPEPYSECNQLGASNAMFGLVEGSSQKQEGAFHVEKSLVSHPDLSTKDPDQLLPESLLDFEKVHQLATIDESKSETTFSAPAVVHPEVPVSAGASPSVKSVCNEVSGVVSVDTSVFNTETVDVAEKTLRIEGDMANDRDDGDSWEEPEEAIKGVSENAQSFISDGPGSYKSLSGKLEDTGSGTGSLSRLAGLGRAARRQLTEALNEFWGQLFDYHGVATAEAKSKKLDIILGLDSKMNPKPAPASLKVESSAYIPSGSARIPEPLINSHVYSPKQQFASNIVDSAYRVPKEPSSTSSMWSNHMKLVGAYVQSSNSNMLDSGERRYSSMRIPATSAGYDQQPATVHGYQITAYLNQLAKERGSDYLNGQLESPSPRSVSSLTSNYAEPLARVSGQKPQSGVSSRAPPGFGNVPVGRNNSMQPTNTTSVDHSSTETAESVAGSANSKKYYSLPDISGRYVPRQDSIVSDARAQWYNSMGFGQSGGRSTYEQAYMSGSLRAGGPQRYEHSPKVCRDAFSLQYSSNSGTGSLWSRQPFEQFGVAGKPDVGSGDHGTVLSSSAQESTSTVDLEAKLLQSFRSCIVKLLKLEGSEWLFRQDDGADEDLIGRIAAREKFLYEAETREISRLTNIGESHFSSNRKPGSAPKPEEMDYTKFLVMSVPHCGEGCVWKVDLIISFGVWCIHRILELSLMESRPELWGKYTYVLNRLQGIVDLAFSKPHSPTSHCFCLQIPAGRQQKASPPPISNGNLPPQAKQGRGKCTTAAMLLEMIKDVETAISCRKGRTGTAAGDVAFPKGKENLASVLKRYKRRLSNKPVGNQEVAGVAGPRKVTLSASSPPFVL", "assay": "MST; 0.4 μM LeETR1-Alexa Fluor 488 titrated with LeEIN2 462-1316 (4.69 nM to 9.6 μM); 50 mM Tris-HCl pH 8.0, 300 mM NaCl, 0.015% Fos-Choline-16; Monolith NT.115, 80% MST power, triplicates", "conditions": "both partners purified"}, "[7]": {"biological_target": "T2, C-terminal part of tomato EIN2 …", "assay": "MST; LeEIN2 462-1316 labeled with Alexa Fluor 488 titrated with non-labeled LeETR1 (Supplementary Fig. S3)", "conditions": "both partners purified"}}, "note": "“Also recorded” adds a separate entry of the source.", "data": [{"molecule": "NCCO/C=C/[C@H](N)C(=O)O", "note": "[AVG, aminoethoxyvinylglycine, reference compound]", "values": [{"measurement": "delay in maturation of tomato fruits", "setting": "[1]", "value": "10 to 15", "unit": "days"}]}, {"molecule": "CC1=CC1", "note": "[MCP, 1-methylcyclopropane, reference compound]", "values": [{"measurement": "delay in maturation of tomato fruits", "setting": "[1]", "value": "10 to 15", "unit": "days"}]}, {"molecule": "EFLYMSVN-NH2 [ROP-1, reference compound]", "values": [{"measurement": "effect on fluorescence of the dyes on their own", "setting": "[2]", "value": "not affected by the peptides; also recorded: Neither of both peptides affected fluorescence of the free, unlabeled dyes"}, {"measurement": "effect on tomato EIN2-ETR1 complex formation", "setting": "[3]", "value": "no effect on tomato EIN2-ETR1 complex formation was observed"}, {"measurement": "effect on tomato fruit ripening (in words)", "setting": "[1]; compared with buffer or untreated control, inhibitors at 200 μM", "value": "no effect on the ripening process; also recorded: A related delay in ripening was not observed"}]}, {"molecule": "B1", "values": [{"measurement": "IC50", "setting": "[4]", "value": 160000, "unit": "nM"}, {"measurement": "Kd", "setting": "[5]", "value": 156, "unit": "nM"}]}, {"molecule": "B2", "values": [{"measurement": "Kd", "setting": "[6]", "value": 619, "unit": "nM"}, {"measurement": "Kd", "setting": "[7]", "value": 651, "unit": "nM"}]}]}
